These results are taken from US11547705B2, “Combination of a PD-1 antagonist and a VEGF-R/FGFR/RET tyrosine kinase inhibitor for treating cancer” (MERCK SHARP & DOHME LLC, priority 2015, dated 2023).

The subject of experiment [1] is mouse lung cancer cell line LL/2 (LLc1). Briefly: Anti-tumor effect in subcutaneous LL/2 (LLc1) transplantation model. Format: in vivo. To be noted: C57BL/6J mice, lenvatinib oral once daily, anti-PD-1 antibody 500 μg/head i.p. every 3 days. The protocol: A DMEM culture medium (high-glucose type) containing 10% fetal bovine serum (FBS) and penicillin/streptomycin was used to culture a mouse lung cancer cell line LL/2 (LLc1) (ATCC number: CRL-1642). Next, phosphate buffered saline (PBS) was used to prepare a cell suspension having a concentration of 2.0×10^7 cells/mL. The cell suspension was subcutaneously transplanted at a dose of 0.1 mL on the right lateral side of the body of each of 7-week-old mice (C57BL/6J, female, Charles River Laboratories Japan Inc.). Eight (8) days after the transplantation, an electronic digital caliper (Digimatic™ Caliper; Mitutoyo Corporation) was used to measure the short and long diameters of a tumor of interest. The following equation was used to calculate the tumor volume TV. Tumor Volume TV (mm^3)=Long Diameter (mm)×Short Diameter (mm)×Short Diameter (mm)/2.
(§1) Based on the tumor volumes on the first day of administration, grouping was carried out such that the average values of the tumor volumes were almost the same. A 1 mg/ml solution of lenvatinib was prepared using water for injection (Otsuka Pharmaceutical Co., Ltd.) and was orally administered at a dose of 0.2 mL/20 g mouse body weight once daily for 14 days. 0.2 mL of an administration sample containing 2.5 mg/mL of an anti-mouse-PD-1 antibody (Clone: RMP1-14, BioXCell, Catalog#: BE0146), which had been diluted with PBS, was intraperitoneally administered (at a dosage of 500 μg/head) once every 3 days a total of 5 times (day 1, day 4, day 7, day 10, and day 13, with the day of the grouping set to day 1). To the control group, Otsuka water for injection was orally administered at a dose of 0.2 mL/20 g mouse body weight once daily for 14 days. Each group including 5 mice was used to conduct the experiment. The day (day 15) after the final administration, the respective tumor volumes (TV) were determined for the control group, the lenvatinib administration group, the anti-mouse-PD-1 antibody administration group, and the combination administration group. The values obtained by logarithmically transforming the tumor volumes were used to carry out statistical analysis.

For experiment [2], the target named is VEGFR2 (Homo sapiens, UniProt P35968). To be noted: according to kinetic analysis; background statement; cited from earlier work.
In experiment [3] the test system is mouse colon carcinoma cell line CT26.WT. Briefly: Anti-tumor effect in subcutaneous CT26.WT transplantation model, lenvatinib mesilate and anti-PD-L1 antibody. The settings on record: BALB/c mice, lenvatinib mesilate oral once daily, anti-PD-L1 antibody 500 μg/head i.p. every 3 days. Format: in vivo. The protocol:
A RPMI1640 culture medium containing 10% FBS and penicillin/streptomycin was used to culture a mouse colon carcinoma cell line CT26.WT (ATCC number: CRL-2638). Hank's Balanced Salt Solution (HBSS) was used to prepare a cell suspension having a concentration of 3.0×10^7 cells/mL. The cell suspension was subcutaneously transplanted at a dose of 0.1 mL on the right lateral side of the body of each of 7-week-old mice (BALB/cAnNCrlCrlj, female, Charles River Laboratories Japan Inc.). 8 days after the transplantation, an electronic digital caliper (Digimatic™ Caliper; Mitutoyo Corporation) was used to measure the short and long diameters of a tumor of interest. The following equation was used to calculate the tumor volume TV. Tumor Volume TV (mm^3)=Long Diameter (mm)×Short Diameter (mm)×Short Diameter (mm)/2.
as §1, with “of lenvatinib mesilate was prepared” for “of lenvatinib was prepared”, “of an anti-mouse-PD-L1 antibody, which had” for “of an anti-mouse-PD-1 antibody (Clone: RMP1-14, BioXCell, Catalog#: BE0146), which had”, “tumor volumes TV were determined” for “tumor volumes (TV) were determined”, “group, the anti-mouse-PD-L1 antibody administration” for “group, the anti-mouse-PD-1 antibody administration”

The mark [4] stands for this setting: Day 1 (day of grouping, first day of administration).

VEGFR2, sequence (P35968 20-1356, species assumed): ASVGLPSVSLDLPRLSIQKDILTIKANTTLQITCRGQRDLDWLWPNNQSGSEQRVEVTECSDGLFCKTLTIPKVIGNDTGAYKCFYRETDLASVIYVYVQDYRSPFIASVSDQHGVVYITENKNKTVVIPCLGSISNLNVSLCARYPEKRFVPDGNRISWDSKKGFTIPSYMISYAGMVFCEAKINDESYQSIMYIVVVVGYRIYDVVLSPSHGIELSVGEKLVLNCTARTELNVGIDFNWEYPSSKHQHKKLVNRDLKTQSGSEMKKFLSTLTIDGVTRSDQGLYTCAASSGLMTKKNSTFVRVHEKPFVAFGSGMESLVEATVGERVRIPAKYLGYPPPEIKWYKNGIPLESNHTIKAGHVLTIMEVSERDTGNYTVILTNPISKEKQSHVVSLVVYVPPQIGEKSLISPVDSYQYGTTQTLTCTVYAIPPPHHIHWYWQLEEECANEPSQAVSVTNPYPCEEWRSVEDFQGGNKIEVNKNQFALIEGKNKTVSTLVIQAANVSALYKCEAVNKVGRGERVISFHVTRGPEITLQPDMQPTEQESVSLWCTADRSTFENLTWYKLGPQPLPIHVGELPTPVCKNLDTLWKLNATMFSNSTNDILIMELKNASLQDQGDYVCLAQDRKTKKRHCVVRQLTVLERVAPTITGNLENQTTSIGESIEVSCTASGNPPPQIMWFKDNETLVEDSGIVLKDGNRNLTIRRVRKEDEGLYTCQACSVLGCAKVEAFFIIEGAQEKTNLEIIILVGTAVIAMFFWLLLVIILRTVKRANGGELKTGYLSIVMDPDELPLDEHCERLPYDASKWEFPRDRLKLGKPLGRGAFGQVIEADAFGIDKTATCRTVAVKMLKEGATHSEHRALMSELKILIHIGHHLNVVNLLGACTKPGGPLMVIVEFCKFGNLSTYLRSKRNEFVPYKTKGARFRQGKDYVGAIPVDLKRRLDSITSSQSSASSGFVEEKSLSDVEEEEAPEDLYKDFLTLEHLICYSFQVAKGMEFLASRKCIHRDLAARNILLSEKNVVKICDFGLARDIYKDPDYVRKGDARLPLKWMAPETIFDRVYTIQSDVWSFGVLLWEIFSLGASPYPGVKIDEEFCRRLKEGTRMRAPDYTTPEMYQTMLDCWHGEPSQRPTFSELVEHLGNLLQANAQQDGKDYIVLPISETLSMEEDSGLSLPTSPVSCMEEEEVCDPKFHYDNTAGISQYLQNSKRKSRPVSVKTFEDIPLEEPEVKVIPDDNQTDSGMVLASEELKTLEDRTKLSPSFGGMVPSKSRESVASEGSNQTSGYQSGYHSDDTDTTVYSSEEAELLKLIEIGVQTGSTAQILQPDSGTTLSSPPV

As for `COc1cc2nccc(Oc3ccc(NC(=O)NC4CC4)c(Cl)c3)c2cc1C(N)=O` [Lenvatinib, 4-[3-chloro-4-(cyclopropylaminocarbonyl)aminophenoxy]-7-methoxy-6-quinolinecarboxamide], the “Tumor Volume TV” value is listed as 100 mm^3 in experiment [1] (setting [4]); 243 mm^3 in experiment [1] (Day 4); 394 mm^3 in experiment [1] (Day 8); 553 mm^3 in experiment [1] (Day 10); 837 mm^3 in experiment [1] (Day 13); 1143 mm^3 in experiment [1] (Day 15 (day after final administration)). In addition, the “Tumor Volume TV” value in experiment [3] (setting [4]) is 154 mm^3; in experiment [3] (Day 4), 472 mm^3; in experiment [3] (Day 8), 1172 mm^3; in experiment [3] (Day 11), 1555 mm^3. In experiment [2], the “inhibition of kinase activity” value is “rapid and potent inhibition of kinase activity”.
